# Target: T1, human H3R (Homo sapiens, UniProt Q9Y5N1)
# T1 construct: expressed in transfected cells; host or cells: CHO cells
# Assay: Competition binding assay with 3H-(R)α-methylhistamine on membranes of the human H3R-CHO cell line
# Conditions: competition with 3H(R)α-methylhistamine (1 nM), Ki calculated from IC50 by Cheng-Prusoff
# Method: Binding Assay with ^3H—(R)α-methylhistamine
# Saturation binding experiments were performed using HR3-(CHO membranes prepared as described in Takahashi, K, Tokita, S., Kotani, H. (2003) J. Pharmacol. Exp. Therapeutics 307, 213-218.
# An appropriate amount of membrane (60 to 80 μg protein/well) was incubated with increasing concentrations of ^3H(R)α-Methylhistamine di-hydrochloride (0.10 to 10 nM). Non specific binding was determined using a 200 fold excess of cold (R)α-Methylhistamine dihydrobromide (500 nM final concentration). The incubation was carried out at room temperature (in deep-well plates shaking for three hours). The final volume in each well was 250 μl. The incubation was followed by rapid filtration on GF/B filters (pre-soaked with 100 μl of 0.5% PEI in Tris 50 mM shaking at 200 rpm for two hours). The filtration was made using a cell-harvester and the filter plates were then washed five times with ice cold washing buffer containing 0.5 M NaCl. After harvesting, the plates were dried at 55° C. for 60 min, then we added scintillation fluid (Microscint 40, 40 microl in each well) and the amount of radioactivity on the filter was determined in Packard top-counter after shaking the plates for two hours at 200 rpm at room temperature.
# Binding Buffer: 50 mM Tris-HCl pH 7.4 and 5 mM MgCl2×6H2O pH 7.4. Washing Buffer: 50 mM Tris-HCl pH 7.4 and 5 mM MgCl2×6H2O and 0.5 M NaCl pH 7.4.
# Indirect measurement of affinity of H3R inverse agonists: twelve increasing concentrations (ranging from 10 μM to 0.3 nM) of the selected compounds were always tested in competition binding experiments using membrane of the human H3R—CHO cell line. An appropriate amount of protein, e.g. approximately 500 cpm binding of RAMH at Kd, were incubated for 1 hour at room temperature in 250 μl final volume in 96-well plates in presence of ^3H(R)α-methylhistamine (1 nM final concentration=Kd). Non-specific binding was determined using a 200 fold excess of cold (R)α-methylhistamine dihydrobromide.
# All compounds were tested at a single concentration in duplicate. […] The concentration at which 50% inhibition of the radioligand ^3H(R)α-methylhistamine is obtained (the IC50) is determined from the linear regression of a plot of the logarithm of the concentration versus percent inhibition measured for the different concentrations. Ki's were calculated from IC50 based on Cheng-Prusoff equation (Cheng, Y, Prusoff, W H (1973) Biochem Pharmacol 22, 3099-3108): Ki=IC50/[1+D/Kd] wherein D is the concentration of the radioligand and Kd is the binding constant for the radioligand binding to the receptor under the conditions used in the competition experiment.
# T1 sequence (Q9Y5N1 whole entry): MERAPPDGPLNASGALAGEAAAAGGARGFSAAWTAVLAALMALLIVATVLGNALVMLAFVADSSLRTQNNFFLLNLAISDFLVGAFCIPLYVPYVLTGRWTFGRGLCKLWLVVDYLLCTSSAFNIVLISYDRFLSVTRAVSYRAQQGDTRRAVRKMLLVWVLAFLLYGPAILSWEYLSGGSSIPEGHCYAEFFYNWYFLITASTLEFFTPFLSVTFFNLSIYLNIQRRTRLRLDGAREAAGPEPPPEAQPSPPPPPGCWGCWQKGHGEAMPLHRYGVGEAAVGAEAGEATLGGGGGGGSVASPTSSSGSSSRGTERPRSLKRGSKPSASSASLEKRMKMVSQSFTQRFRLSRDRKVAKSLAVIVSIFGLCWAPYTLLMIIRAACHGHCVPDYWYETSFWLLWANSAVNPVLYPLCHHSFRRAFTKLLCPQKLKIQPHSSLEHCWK
row,Ki [nM],Compound
1,44.4,"CCCC(=O)N1CCc2sc(OCCCN3CCCCC3)cc2C1 [Example 33, 1-[2-(3-piperidin-1-yl-propoxy)-6,7-dihydro-4H-thieno[3,2-c]pyridin-5-yl]-butan-1-one]"
2,31.7,"O=C(NCc1ccccc1)N1CCc2sc(OCCCN3CCCC3)cc2C1 [Example 48, 2-(3-pyrrolidin-1-yl-propoxy)-6,7-dihydro-4H-thieno[3,2-c]pyridine-5-carboxylic acid benzylamide]"
3,27.3,"Cc1ccccc1S(=O)(=O)N1CCc2sc(OCCCN3CCCC3)cc2C1 [Example 56, 2-(3-pyrrolidin-1-yl-propoxy)-5-(toluene-2-sulfonyl)-4,5,6,7-tetrahydro-thieno[3,2-c]pyridine]"

# The next lines start with the compound.
row,Compound,Ki [nM]
1,"O=C(N1CCOCC1)N1CCc2sc(OCCCN3CCCCC3)cc2C1 [Example 1, Morpholin-4-yl-[2-(3-piperidin-1-yl-propoxy)-6,7-dihydro-4H-thieno[3,2-c]pyridin-5-yl]-methanone]",35.7
2,"CC1CCC(CC(=O)N2CCc3sc(OC4CCN(C(C)C)C4)cc3C2)CC1 (centres unmarked) [Example 90, 1-[2-(1-isopropyl-pyrrolidin-3-yloxy)-6,7-dihydro-4H-thieno[3,2-c]pyridin-5-yl]-2-(4-methyl-cyclohexyl)-ethanone]",21.7

# — patent publication US7557101B2, “4,5,6,7-tetrahydro-thieno[3,2-c] pyridine derivatives” (Hoffman-La Roche Inc., priority 2006, dated 2009)
